Here are results for 12 compounds from paper PMC8978638 (RSC Advances, 2021).

SMILES strings stand for the structures.

By IC50 is commonly meant the point on the concentration scale where inhibition reaches its midpoint.

The nature of assay [1]: DPPH free radical scavenging. The note with it: % scavenging of DPPH at 1 μg μL^−1 concentration. (In general: Loss of DPPH colour is used to gauge radical scavenging.)
The next assay addresses human AChE (Homo sapiens, UniProt P22303). Put plainly: Enzyme inhibition assay. It counts as biochemical.
For another assay, the target named is human BChE (Homo sapiens, UniProt P06276). Put plainly: Enzyme inhibition assay. It counts as biochemical.
human BChE, sequence (P06276 29-602): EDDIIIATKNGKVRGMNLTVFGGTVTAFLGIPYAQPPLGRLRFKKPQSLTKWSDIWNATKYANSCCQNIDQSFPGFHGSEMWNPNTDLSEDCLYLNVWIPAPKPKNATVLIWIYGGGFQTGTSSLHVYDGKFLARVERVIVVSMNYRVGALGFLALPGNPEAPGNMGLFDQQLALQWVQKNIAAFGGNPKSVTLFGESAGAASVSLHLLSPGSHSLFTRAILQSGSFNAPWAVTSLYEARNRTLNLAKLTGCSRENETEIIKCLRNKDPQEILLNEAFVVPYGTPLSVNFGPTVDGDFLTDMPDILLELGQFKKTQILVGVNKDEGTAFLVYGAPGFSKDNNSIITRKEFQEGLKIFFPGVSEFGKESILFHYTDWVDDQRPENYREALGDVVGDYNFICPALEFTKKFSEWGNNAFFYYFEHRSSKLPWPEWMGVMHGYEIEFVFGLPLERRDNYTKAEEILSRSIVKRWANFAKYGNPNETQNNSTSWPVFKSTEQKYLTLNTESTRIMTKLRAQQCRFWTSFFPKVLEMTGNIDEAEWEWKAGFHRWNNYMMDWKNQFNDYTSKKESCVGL

human AChE, sequence (P22303 32-614): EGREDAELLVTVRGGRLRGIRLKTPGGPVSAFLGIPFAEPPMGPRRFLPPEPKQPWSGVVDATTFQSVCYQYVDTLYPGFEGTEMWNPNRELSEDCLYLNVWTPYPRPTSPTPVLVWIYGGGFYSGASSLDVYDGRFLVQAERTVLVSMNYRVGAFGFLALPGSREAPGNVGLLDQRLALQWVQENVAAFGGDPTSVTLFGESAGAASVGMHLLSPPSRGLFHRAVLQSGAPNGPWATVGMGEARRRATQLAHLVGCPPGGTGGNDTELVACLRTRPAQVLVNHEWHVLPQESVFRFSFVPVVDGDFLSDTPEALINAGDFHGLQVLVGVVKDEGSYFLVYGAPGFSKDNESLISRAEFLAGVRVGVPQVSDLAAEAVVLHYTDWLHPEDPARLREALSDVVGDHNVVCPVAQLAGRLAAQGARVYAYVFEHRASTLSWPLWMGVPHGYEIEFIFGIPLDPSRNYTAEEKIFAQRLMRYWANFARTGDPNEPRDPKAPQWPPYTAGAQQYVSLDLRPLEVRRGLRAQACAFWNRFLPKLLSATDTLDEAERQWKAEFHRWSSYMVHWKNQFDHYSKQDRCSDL

Consider `O=C1O[C@H]([C@@H](O)CO)C(O)=C1O` [Ascorbic acid, ascorbic acid, reference compound], for which the “Scavenging (%)” value in assay [1] is 96.39%.

With `COC(=O)c1ccccc1NC(=O)c1ccccc1` [Compound 03, methyl-2-benzamidobenzoate], in assay [1], the “Scavenging (%)” value worked out at 37.17%. Also, the IC50 at human AChE is 0.25 ± 0.06 µM; against human BChE, 210 ± 60 nM.

With `NNC(=O)c1ccccc1NC(=O)c1ccccc1` [Compound 04, N-(2-(hydrazinecarbonyl)phenyl)benzamide], the figures for the “Scavenging (%)” value in assay [1] and in assay [1] (listed as 4) were 95.06% and 95.07%, respectively. The figures for the IC50 against human AChE and on human BChE were 27.65 ± 0.14 µM and 170 ± 120 nM, respectively.

Take `O=C(Nc1ccccc1C(=O)N/N=C/c1ccc(Cl)cc1)c1ccccc1` [Compound 05, (E)-N-(2-(2-(4-Chlorobenzylidene)hydrazinecarbonyl)phenyl) benzamide]: the “Scavenging (%)” value in assay [1] was found to be 35.37%. Also, the results for the IC50 on human AChE and at human BChE were 1.03 ± 0.12 µM and 1240 ± 120 nM, respectively.

For `O=C(Nc1ccccc1C(=O)N/N=C/c1ccc(Br)cc1)c1ccccc1` [Compound 06, (E)-N-(2-(2-(4-Bromobenzylidene)hydrazinecarbonyl)phenyl)benzamide], the “Scavenging (%)” value in assay [1] worked out at 15.88%. In addition, the IC50 on human AChE is 0.09 ± 0.05 µM; on human BChE, 140 ± 50 nM.

Regarding `CN(C)c1ccc(/C=N/NC(=O)c2ccccc2NC(=O)c2ccccc2)cc1` [Compound 07, (E)-N-(2-(2-(4-(Dimethylamino)benzylidene)hydrazinecarbonyl)phenyl)benzamide], the “Scavenging (%)” value in assay [1] is reported as 43.97%. The same compound had an IC50 against human AChE of 25.2 ± 0.21 µM.

As to `O=C(Nc1ccccc1C(=O)N/N=C/c1ccc([N+](=O)[O-])cc1)c1ccccc1` [Compound 08, (E)-N-(2-(2-(4-Nitrobenzylidene)hydrazinecarbonyl)phenyl)benzamide], the “Scavenging (%)” value in assay [1] came out at 20.20%. Moreover, the IC50 at human AChE is 14.8 ± 0.29 µM; on human BChE it was 190 ± 120 nM.

As to `CC(C)c1ccc(/C=N/NC(=O)c2ccccc2NC(=O)c2ccccc2)cc1` [Compound 09, (E)-N-(2-(2-(4-Isopropylbenzylidene)hydrazinecarbonyl)phenyl)benzamide], the “Scavenging (%)” value in assay [1] was found to be 33.73%. In addition, on human AChE, 23.1 ± 0.25 µM corresponded to half-maximal inhibition (IC50).

For `O=C(Nc1ccccc1C(=O)N/N=C/c1ccc(O)cc1O)c1ccccc1` [Compound 10, (E)-N-(2-(2-(2,4-Dihydroxybenzylidene)hydrazinecarbonyl)phenyl)benzamide], the “Scavenging (%)” value in assay [1] came out at 82.55%. The figures for the IC50 at human AChE and at human BChE were 18.5 ± 0.19 µM and 2150 ± 260 nM, respectively.

Consider `O=C(Nc1ccccc1C(=O)N/N=C/c1ccccc1O)c1ccccc1` [Compound 11, (E)-N-(2-(2-(2-Hydroxybenzylidene)hydrazinecarbonyl)phenyl)benzamide], for which the “Scavenging (%)” value in assay [1] is 67.54%. Further, the IC50 at human AChE worked out at 1.14 ± 0.35 µM; on human BChE, 120 ± 90 nM.

Consider `COc1ccc(/C=N/NC(=O)c2ccccc2NC(=O)c2ccccc2)cc1` [Compound 12, (E)-N-(2-(2-(4-Methoxybenzylidene)hydrazinecarbonyl)phenyl)benzamide], for which the “Scavenging (%)” value in assay [1] was determined as 30.09%. The IC50 stood at 20.4 ± 0.23 µM on human AChE and 18340 ± 140 nM against human BChE.

In the case of `O=C(Nc1ccccc1C(=O)N/N=C/c1ccccc1)c1ccccc1` [Compound 13, (E)-N-(2-(2-Benzylidenehydrazinecarbonyl)phenyl)benzamide], the “Scavenging (%)” value in assay [1] was 30.21%. Further, the figures for the IC50 on human AChE and against human BChE were 0.11 ± 0.03 µM and 100 ± 60 nM, respectively.
